The source of these data is patent publication US11801232B2, “Targeting of ARID1A-deficient cancers by inhibiting de novo pyrimidine synthesis pathway” (YALE UNIVERSITY, priority 2019, dated 2023).

What all share (assay): Cytotoxicity (SRB) assay with CalcuSyn combination analysis
Holding throughout (type): cell-based

For one assay, the system named is ES2 cells. As to conditions: Homo sapiens, ES2 parental, read-out: Dm. On the procedure:
Cytotoxicity assay. Cells were seeded in 96-well plates, with 2000 cells in 100 μL/well, and cultured for 24 h. The cells were treated with serial dilutions of drugs or without drug for an additional 72 h. Cell number was determined using a sulforhodamine B (SRB) assay, as previously described^23. Briefly, cells were fixed with 20% trichloroacetic acid (TCA), air-dried, and stained with 0.4% SRB dissolved in 1% acetic acid. After washing, protein-bound dye was solubilized with 10 mM unbuffered Tris-base solution (pH 10.5) and detected at 510 nm using a microplate reader. Percentage of cell-growth was calculated using the following formula: % cell growth=[(Absorbance sample)/(Absorbance untreated)]×100 […] Datasets from at least three independent experiments were combined, and each table cell contains the mean value±SD. SCR, ES2-shScrambled. N/A, not applicable. Statistical analysis was carried out by one-way ANOVA with Bonferroni's post-hoc test, and differences were considered significant at **P<0.01 and ***P<0.001 as compared to the ES2 parental group with the same drug treatment. […] CIwt value was calculated using the formula: […] Datasets from at least three independent experiments were combined, and each table cell contains the mean value±SD. Teri, teriflunomide. SCR, ES2-shScrambled. N/A, not applicable. Statistical analysis was carried out by one-way ANOVA with Bonferroni's post-hoc test, and differences were considered significant at ***P<0.001 as compared to the ES2 parental group with the same drug treatment.

The next assay relates to ES2 shARID1A (a) cells. The conditions noted are these: Homo sapiens, read-out: Dm. On the procedure: (§1) Short Hairpin RNA (shRNA)-Mediated Knockdown and Expression of ARID1A in ovarian and endometrial carcinoma cells. shRNA lentiviral supernatants were produced using standard protocols, as previously described^8. Vectors were transfected into HEK293FT cells using X-tremeGENE 9 DNA Transfection Reagent (from Roche). Retroviral supernatants isolated at 48 h were diluted 1:1 in culture medium and used to infect ARID1A-wildtype ES2 and KLE cell lines. Stably transfected subclones were expanded using puromycin (from Dot Scientific) drug selection. For expression of ARID1A in the ARID1A-mutant HEC-1-A cell line, pCIN4-HA-ARID1A was transfected using X-tremeGENE 9 DNA Transfection Reagent (from Roche), followed by selection with G418 (from Gibco). For expression of ARID1A in the ARID1A-mutant SKOV3 and OVISE cell lines, V5/His-tagged pLenti-puro-LacZ and pLenti-puro-ARID1A were transfected using lentivirus. Lentivirus was produced using HEK293FT cells with the second-generation packaging system pSPAX2 (Addgene plasmid) and pMD2.G (Addgene plasmid). Stably transfected subclones were expanded using puromycin and blasticidin (Gibco) drug selection.
(§2) Cytotoxicity assay. Cells were seeded in 96-well plates, with 2000 cells in 100 μL/well, and cultured for 24 h. The cells were treated with serial dilutions of drugs or without drug for an additional 72 h. Cell number was determined using a sulforhodamine B (SRB) assay, as previously described^23. Briefly, cells were fixed with 20% trichloroacetic acid (TCA), air-dried, and stained with 0.4% SRB dissolved in 1% acetic acid. After washing, protein-bound dye was solubilized with 10 mM unbuffered Tris-base solution (pH 10.5) and detected at 510 nm using a microplate reader. Percentage of cell-growth was calculated using the following formula: % cell growth=[(Absorbance sample)/(Absorbance untreated)]×100
(§3) Using CalcuSyn software (Biosoft), dose-effect curves were generated, and drug concentrations corresponding to a 50% decrease in cell number (IC50) were determined.
(§4) Drug concentrations corresponding to a median effect (Dm) are shown for each treatment; teriflunomide concentration is shown for combination (Combo) treatment at a 10:1 fixed molar ratio of two drugs, teriflunomide and AZD6738. […] Datasets from at least three independent experiments were combined, and each table cell contains the mean value±SD. SCR, ES2-shScrambled. N/A, not applicable. Statistical analysis was carried out by one-way ANOVA with Bonferroni's post-hoc test, and differences were considered significant at **P<0.01 and ***P<0.001 as compared to the ES2 parental group with the same drug treatment.
(§5) Drug concentrations (in μM for teriflunomide, in nM for […]) corresponding to median effect (Dm) are shown for each treatment; teriflunomide concentration is shown for combination (Combo) treatment at a 200:1 fixed molar ratio of the two drugs, teriflunomide and VX-970. […] CIwt<0.8, =0.8 to 1.2, and >1.2 indicates synergism, an additive effect, and antagonism, respectively. CIwt value was calculated using the formula: CIwt=(ED50+2ED75+3ED90)/6. Datasets from at least three independent experiments were combined, and each table cell contains the mean value±SD. Teri, teriflunomide. SCR, ES2-shScrambled. N/A, not applicable. Statistical analysis was carried out by one-way ANOVA with Bonferroni's post-hoc test, and differences were considered significant at ***P<0.001 as compared to the ES2 parental group with the same drug treatment.

Another assay deals with ES2 shARID1A (b) cells. The conditions noted are these: Homo sapiens, read-out: Dm. On the procedure: as §1, §2, §3, §4, §5
In assay [1] the test system is ES2-shScrambled (SCR) cells. The conditions noted are these: Homo sapiens, read-out: Dm. As for the experimental part:
as §1, §2, §3, §4, §5

Another assay relates to A2780 cells. The conditions noted are these: Homo sapiens, Table 4, single drug, median effect, read-out: Dm. As for the experimental part: as §2, §3
Drug concentrations corresponding to a median effect (Dm) are shown for each treatment; teriflunomide concentration is shown for a combination (Combo) treatment at a 10:1 fixed molar ratio of two drugs, teriflunomide and AZD6738. […] CIwt<0.8, =0.8 to 1.2, and >1.2 indicate synergism, an additive effect, and antagonism, respectively. A CIwt value was calculated using the formula: CIwt=(ED50+2ED75+3ED90)/6. Datasets from at least three independent experiments were combined, and each table cell contains the mean value±SD.

A further assay has as its system HEC-1A cells. The conditions noted are these: Homo sapiens, Table 6, single drug, median effect, read-out: Dm. On the procedure: as §2, §3
(§6) The drug concentrations corresponding to a median effect (Dm) are shown for each treatment; teriflunomide concentration is shown for combination (Combo) treatment at a 10:1 fixed molar ratio of two drugs, teriflunomide and AZD6738. […] CIwt<0.8, =0.8 to 1.2, and >1.2 indicates synergism, an additive effect, and antagonism, respectively. A CIwt value was calculated using the formula: CIwt=(ED50+2ED75+3ED90)/6. Datasets from at least three independent experiments were combined, and each table cell contains the mean value±SD.

The next assay relates to JHOC-5 cells. The conditions noted are these: Homo sapiens, Table 5, single drug, median effect, read-out: Dm. As for the experimental part: as §2, §3, §6
Where [2] appears, read: ES-2, Table 1, single drug, median effect.
Where [3] appears, read: Table 1, single drug, median effect.

Molecules are shown by their SMILES. Read-outs that look alike come from different tables or passages of the source.

`C[C@@H]1COCCN1c1cc(C2([S@](C)(=N)=O)CC2)nc(-c2cc[nH]c3nccc2-3)n1` [AZD6738]: the IC50 is 1.23 ± 0.16 µM in the assay with ES2 cells (setting [2]); 0.2 ± 0.01 µM with ES2 shARID1A (a) cells (setting [3]); 0.24 ± 0.03 µM in the assay with ES2 shARID1A (b) cells (setting [3]); 1.18 ± 0.17 µM in assay [1] (setting [3]); 5.54 ± 1.06 µM in the assay with A2780 cells; 4.47 ± 0.45 µM in the assay on HEC-1A cells. Besides, the IC50 in the assay with JHOC-5 cells was 2.91 ± 0.76 µM.
`C/C(O)=C(\C#N)C(=O)Nc1ccc(C(F)(F)F)cc1` [Teriflunomide, teriflunomide]: the IC50 was 26.4 ± 2.18 µM in the assay on ES2 cells (setting [2]); 29.1 ± 0.54 µM in the assay on ES2 cells (ES-2, Table 2, teriflunomide alone); 17.9 ± 1.32 µM in the assay on ES2 shARID1A (a) cells (setting [3]); 15.6 ± 1.79 µM in the assay on ES2 shARID1A (a) cells (Table 2, teriflunomide alone); 16.8 ± 0.92 µM in the assay with ES2 shARID1A (b) cells (setting [3]); 15.5 ± 3.11 µM with ES2 shARID1A (b) cells (Table 2, teriflunomide alone). For the same molecule, the IC50 is 28.2 ± 1.59 µM in assay [1] (setting [3]); 26.7 ± 1.26 µM in assay [1] (Table 2, teriflunomide alone); 18.9 ± 1.39 µM in the assay with A2780 cells; 50.5 ± 4.99 µM with HEC-1A cells; 25.2 ± 1.85 µM in the assay on JHOC-5 cells.
